Reference: patent US20080272062A1, “BROAD SPECTRUM ANTIMICROBIAL PURIFICATION DEVICES AND METHODS FOR PURIFYING FLUIDS” (WATER VISIONS INTERNATIONAL, INC., priority 2006, published 2008)
Where a name gives a salt, the structure may show the parent alone. Read-outs that look alike come from different tables or passages of the source. Marks after values point to notes of the source that are not given here.

Columns and labels:
[1] = Solubility in solvents (aliquot dried and weighed); type: physicochemical; conditions: for Solubility: 7 days
Procedure: A sample of material was placed in a small vial with a few mL of solvent. The solution was stirred by shaking for several hours and then allowed to sit for a week equilibrating.
A 1 mL aliquot drawn from the solution using an Eppendorf pipette was placed in a weigh boat and dried in an oven. The dried sample was weighed. Measurements of the alcohol and water solvents were taken after three hours of mixing and again after a week. At the three hour measurement, it was necessary to centrifuge the sample in order to separate the solvent solution from the particulate matter.

Porosity to water = type: physicochemical; conditions: water head 25 cm, cross-sectional area 2.775 cm^2
Procedure: To measure the porosity of the materials to water, samples were placed in a ¾″ inner diameter plastic tube fitted with a plug with a hole in the middle. A wire mesh, on top of the plug, prevented the powder from passing through the plug. Deionized water was passed through the sample until the material was sufficiently packed and a second wire mesh was positioned on top of the sample. Water was added to the tube to a height of 25 centimeters above the plug of material. This height was maintained to plus or minus one cm in order to maintain a constant pressure. The porosity was calculated by calculating the volumetric flow rate (volume/time), multiplying by the cross-sectional area (2.775 cm^2), and dividing by the thickness. Accordingly, the rate should increase proportionally with increases in the cross section and decreases in the thickness.

E. coli/bacteria = assay: Pumped flow through chlorhexidine dihydrate treatment device, Aerobic Plate Count; type: cell-based
Procedure: Dechlorinated city of Atlanta tap water was inoculated with a culture of E. coli/bacteria and pumped through a 0.25 inch chlorhexidine dihvdrate treatment device at a rate of 1 to 2 L/min up to 80 L. Bacterial recovery was determined by Aerobic Plate Count and is shown in Table 9.
Accordingly, the reaction of chlorhexidine dihydrate appears to be of a “catalytic” nature. Conversely, typical applications involving soluble chlorhexidine gluconate result in its consumption and approach a second-order reaction. The same is true for most other known antimicrobial agents. Thus, chlorhexidine dehydrate is particularly suitable for use as a purification material.

all microorganisms = assay: Treatment of influent contaminated water stream with particle bed of insoluble chlorhexidine dihydrate; type: cell-based
Text: The composition of chlorhexidine dihydrate produced mortality in all microorganisms with a minimum or greater mean 10-log reduction upon treatment of an influent contaminated water stream with a particle bed of insoluble chlorhexidine dihydrate. While it is known that soluble chlorhexidine salts are bactericidal for some microorganisms, the purification materials embodied herein require insoluble antimicrobial agents. Thus, the previously known chlorhexidine salts are unacceptable for use in the purification materials embodied herein.

E. coli [2] = assay: Gravity flow of inoculum through chlorhexidine dihydrate particle bed; type: cell-based
Procedure: (§1) Columns having a length of 30.48 cm and diameter of 0.75 in were packed with particle beds comprising chlorhexidine dihydrate having lengths of 1.9 cm, 2.5 cm, and 4.1 cm. A 40 mL mixture of inocculum (comprising 35 million B. subtilis, 91 million E. coli, 130 million R. terrigena, and 100 million A. niger) and water was passed by gravity through the chlorhexidine dihydrate particle bed.

B. subtilis = assay: as above; type: cell-based
Procedure: as §1

R. terrigena = assay: as above; type: cell-based
Procedure: as §1

A. niger = assay: as above; type: cell-based
Procedure: as §1

[3] = Solubility in solvents (aliquot dried and weighed); type: physicochemical; conditions: 3 days
Dry bulk density = type: physicochemical; conditions: packed in 50 ml graduated cylinder, vortex agitated
Procedure: The materials were loosely packed into tared 50 ml graduated cylinders and agitated with a vortex mixer to further pack the materials in the cylinders. The weight of the material was determined and then divided by the volume of material to determine the bulk density. The larger value for the dihydrate is due to the significant amorphous fraction of the material that is not present in the pure chlorhexidine. The amorphous particles are smaller than crystals and fill the voids between crystals allowing for a greater packing density of particles, […]

[4] = Surface energy, contact angle on dip-coated glass slides; type: physicochemical; design: unit not given here
Procedure: Glass slides were cleaned in hot chromic acid, deionized water and blown dry. Two slides were treated with hexamethyldisilazane to lower their surface energy. Solutions of chlorhexidine dihydrate in chloroform/methanol and chlorhexidine in methylene chloride/methanol were prepared. The slides were coated using a dip-coater with a dipping speed of 2.8 mm/min. […] The untreated slides produced very uniform thin films.

[5] = Density by suspension in binary solvent system; type: physicochemical; conditions: melted glassy chunk, chlorobenzene/carbon tetrachloride
Text: Chlorhexidine and chlorhexidine dihydrate were melted on a glass slide heated on a hot plate. These glassy materials easily fractured into large chunks. One of these chunks from each sample was used to determine the density of the material. Using a binary solvent system consisting of chlorobenzene (density 1.102 g/cc) and carbon tetrachloride (density […]), the chunk of material was suspended. The solution was adjusted until the particle remained hovering in mid solution without floating to the surface or sinking to the bottom. The resulting solution was weighed in a 10 mL volumetric flask and the density was calculated. The procedure was repeated at least 4 times for each sample.

[6] = Temperature dependence of solubility in water; type: physicochemical
Procedure: The effect of temperature on the solubility of chlorhexidine dihydrate in water was determined by placing a sample of chlorhexidine dihydrate in a 100 mL round bottom flask with 50 mL of deionized water. The round bottom flask contained a stir bar and was placed in an oil bath on a hot plate. The solution was gradually warmed. Aliquots were taken every 15° C. The aliquot was taken from the solution using of a syringe fitted with a micropore filter (Whatman fiberglass filter GF/D, pore size 2.7). The filter separated the solution from the suspended material. The solution was dried in a weigh boat at 60° C. overnight.

E. coli [7] = assay: Gravity flow of inoculum through chlorhexidine base particle bed; type: cell-based; conditions: 40 mL, 6.4 million E. coli, 54 minutes
Procedure: A 40 mL mixture of inocculum comprising 6.4 million E. coli and water was passed by gravity flow through a chlorhexidine base particle bed. It took 54 minutes for the fluid to pass through the particle bed.

[8] = cited from earlier work
[9] = bed 2.5 cm, flow time 2.0 minutes
[10] = bed 4.1 cm, flow time 1.5 hours
[11] = Water/Ethanol (50:50, 30.0 dyne/cm)
[12] = Water/Ethanol (70:30, 36.1 dyne/cm)
[13] = Water/Ethanol (90:10, 51.3 dyne/cm)

SMILES: N=C(NCCCCCCNC(=N)NC(=N)Nc1ccc(Cl)cc1)NC(=N)Nc1ccc(Cl)cc1.O.O [Chlorhexidine dihydrate, chlorhexidine dihydrate]
- Solubility ([1]; Chloroform): 5600 µg/mL
- Solubility ([1]; Ethanol): 600 µg/mL
- Solubility ([1]; Ethyl Acetate): 10000 µg/mL
- Solubility ([1]; Iso-propanol): 400 µg/mL
- Solubility ([1]; MIBK): 21100 µg/mL
- Solubility ([1]; Methanol): 2800 µg/mL
- Solubility ([1]; Methylene Chloride): 5600 µg/mL
- Solubility ([1]; Water): <400 µg/mL
- Solubility (in words) ([1]; hot methanol, chloroform, methylene chloride, and ketones): appreciable solubility
- Porosity (Porosity to water): 7.55 mL cm^2/min/cm
- inactivation of E. coli (E. coli/bacteria; 1 to 2 L/min up to 80 L, 0.25 inch thickness disc): 100%
- Total Aerobic Plate Count (E. coli/bacteria; 20 L run through device, untreated 8.6 × 10^8, 1 to 2 L/min): 10 # colonies/mL
- Total Aerobic Plate Count (E. coli/bacteria; 40 L run through device): <10 # colonies/mL
- Total Aerobic Plate Count (E. coli/bacteria; 60 L run through device): <10 # colonies/mL
- Total Aerobic Plate Count (E. coli/bacteria; 80 L run through device): <10 # colonies/mL
- mean log reduction (mortality in all microorganisms) (all microorganisms): ≥ 10 log
- % Reduction (E. coli [2]; bed 1.9 cm, flow time 1.0 hour): >99.999%
- Effluent (1.9 cm) (E. coli [2]; bed 1.9 cm, inoculum 91 × 10^6, flow time 1.0 hour): <1000
- % Reduction (E. coli [2]; [9]): >99.999%
- Effluent (2.5 cm) (E. coli [2]; bed 2.5 cm, inoculum 91 × 10^6, flow time 2.0 minutes): <1000
- % Reduction (E. coli [2]; [10]): >99.999%
- Effluent (4.1 cm) (E. coli [2]; bed 4.1 cm, inoculum 91 × 10^6, flow time 1.5 hours): <1000
- % Reduction (B. subtilis; bed 1.9 cm, flow time 1.0 hour): >99.997%
- Effluent (1.9 cm) (B. subtilis; bed 1.9 cm, inoculum 35 × 10^6, flow time 1.0 hour): <1000
- % Reduction (B. subtilis; [9]): 99.6%
- Effluent (2.5 cm) (B. subtilis; bed 2.5 cm, inoculum 35 × 10^6, flow time 2.0 minutes): 14 × 10^5
- % Reduction (B. subtilis; [10]): >99.997%
- Effluent (4.1 cm) (B. subtilis; bed 4.1 cm, inoculum 35 × 10^6, flow time 1.5 hours): <1000
- % Reduction (R. terrigena; bed 1.9 cm, flow time 1.0 hour): >99.999%
- Effluent (1.9 cm) (R. terrigena; bed 1.9 cm, inoculum 130 × 10^6, flow time 1.0 hour): <1000
- % Reduction (R. terrigena; [9]): >99.999%
- Effluent (2.5 cm) (R. terrigena; bed 2.5 cm, inoculum 130 × 10^6, flow time 2.0 minutes): <1000
- % Reduction (R. terrigena; [10]): >99.999%
- Effluent (4.1 cm) (R. terrigena; bed 4.1 cm, inoculum 130 × 10^6, flow time 1.5 hours): <1000
- % Reduction (A. niger; bed 1.9 cm, flow time 1.0 hour): >99.9%
- Effluent (1.9 cm) (A. niger; bed 1.9 cm, inoculum 100 × 10^6, flow time 1.0 hour): <1000
- % Reduction (A. niger; [9]): 99.2%
- Effluent (2.5 cm) (A. niger; bed 2.5 cm, inoculum 100 × 10^6, flow time 2.0 minutes): 8000
- % Reduction (A. niger; [10]): >99.9%
- Effluent (4.1 cm) (A. niger; bed 4.1 cm, inoculum 100 × 10^6, flow time 1.5 hours): <1000
- Solubility ([3]; Ethanol): 1700 µg/mL
- Solubility ([3]; Iso-propanol): 900 µg/mL
- Solubility ([3]; Methanol): 3600 µg/mL
- Solubility ([3]; Water): <500 µg/mL
- Bulk Density (Dry bulk density): 0.70 g/cc
- Mean Contact Angle ([4]; Water (72.2 dyne/cm)): 7.08
- Mean Contact Angle [4, 11]: 0
- Mean Contact Angle [4, 12]: 18.44
- Mean Contact Angle [4, 13]: 13.08
- Density [5]: 1.266 ± .001 g/cc
- Solubility in water ([6]; 30 ° C.): 460 µg/mL
- Solubility in water ([6]; 45 ° C.): 740 µg/mL
- Solubility in water ([6]; 60 ° C.): 780 µg/mL
- Solubility in water ([6]; 75 ° C.): 920 µg/mL
- Solubility in water ([6]; 90 ° C.): 890 µg/mL
- Solubility (in words) ([6]; hot and cold water): very limited solubility

SMILES: [H]/N=C(\N/C(=N/[H])NCCCCCCNC(=N)NC(=N)Nc1ccc(Cl)cc1)Nc1ccc(Cl)cc1 [Chlorhexidine hydrochloride, chlorhexidine hydrochloride]
- Bulk Density (Dry bulk density): 0.15 g/cc

SMILES: [H]/N=C(\N/C(=N/[H])NCCCCCCNC(=N)NC(=N)Nc1ccc(Cl)cc1)Nc1ccc(Cl)cc1 [Chlorhexidine, N,N″Bis(4-chlorophenyl)-3,12-diimino-2,4,11,13-tetrazatetradecanediimideamide, reference compound]
- Porosity (Porosity to water): 3.60 mL cm^2/min/cm
- reduction in E. coli (E. coli [7]): greater than 99.999%
- Bulk Density (Dry bulk density): 0.64 g/cc
- Mean Contact Angle ([4]; Water (72.2 dyne/cm)): 10.28
- Mean Contact Angle [4, 11]: 0
- Mean Contact Angle [4, 12]: 13.5
- Mean Contact Angle [4, 13]: 15.3
- Density [5]: 1.270 ± .001 g/cc
- Solubility ([8]; reported by Block, Disinfection, Sterilization, and Preservation, 2001): 0.0008%
- Solubility ([8]; reported by Merck Index): 0.08%
